Data from patent publication US11773057B2, “Naphthalenesulfonamide compound, preparation method, and application” (CHINA PHARMACEUTICAL UNIVERSITY, priority 2019, dated 2023).
pIC50: −log10 of the molar value.

Molecular target: T1, Keap1-Nrf2 PPI (Keap1 kelch domain protein, FITC labeled Nrf2 9 peptide) (Homo sapiens, UniProt Q14145)
T1 construct: 10 μL 12 nm Keap1 kelch domain protein
Assay: Fluorescence polarization based Keap1-Nrf2 PPI competitive inhibition experiment (FP experiment)
Type: binding
Details: FP experiment
Description: 1. Keap1-Nrf2 PPI Competitive Inhibition Test Based on Fluorescence Polarization (FP Experiment)
The 384-well blackboard model 3676 produced by Corning is used in FP experiment, with a total volume of reaction of 40 μL. 20 μL compound, 10 μL 4 nm FITC labeled Nrf2 9 peptide, 10 μL 12 nm Keap1 kelch domain protein are added to the well in order. 20 μL 200 nM DDO-1002, 10 μL 4 nM of the FITC-labeled Nrf2 9 peptide, 10 μL 12 nM of Keap1 Ketch domain protein are used in the positive control; 20 μL HEPES buffer, 10 μL 4 nM of the FITC-labeled Nrf2 9 peptide, 10 μL, 12 nM of Keap1 Kelch domain protein are used in the negative control; 10 μL 4 nM of the FITC-labeled Nrf2 9 peptide, 30 μL of HEPES buffer are used in the blank control. After addition is complete, they are incubated for 30 min at room temperature. The detection instrument is a SpectraMax Multi-Mode Microplate Reader (Molecular Devices), the excitation light wavelength selected is 485 nm, the emission light wavelength is 545 nm, and the fluorescence intensity in the horizontal and vertical directions is detected to calculate the polarization value. The inhibition rate is calculated as: inhibition %=[…]/(Pmax−Pmin) wherein Pobs is the polarization value of the compound well, Pmax is the polarization value of the negative control well, and Pmin is the polarization value of the blank well. Data treatment is performed using GraphPad Prism, and IC50 of the compound is calculated using a concentration-inhibition rate curve. The IC50 values for each compound are as previously described.

[1] = general formula I / II compounds
[2] = general formula III compounds, unit inferred

T1 sequence (Q14145 321-609 limits assumed): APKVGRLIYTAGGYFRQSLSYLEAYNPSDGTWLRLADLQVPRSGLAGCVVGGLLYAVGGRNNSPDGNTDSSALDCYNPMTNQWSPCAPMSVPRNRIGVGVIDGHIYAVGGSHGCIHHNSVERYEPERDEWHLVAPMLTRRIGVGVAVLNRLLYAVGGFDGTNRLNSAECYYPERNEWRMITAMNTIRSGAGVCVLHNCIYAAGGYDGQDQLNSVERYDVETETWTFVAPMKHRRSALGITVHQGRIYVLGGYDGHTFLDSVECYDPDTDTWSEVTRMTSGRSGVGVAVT

Compound	pIC50 [1]	further results
COc1ccc(S(=O)(=O)Nc2ccc(N(Cc3ccccc3)[C@@H](C)CC(=O)O)c3ccccc23)cc1 [DDO-1160]	6.07	
COc1ccc(S(=O)(=O)N(CC(=O)O)c2ccc(N(Cc3ccccc3)[C@@H](C)CC(=O)O)c3ccccc23)cc1 [DDO-1161, (S)-3-(benzyl(4-((N-(carboxymethyl)-4methoxyphenyl)sulfonamido)naphthalen-1-yl) (benzyl)amino) butanoic acid]	6.97	
COc1ccc(S(=O)(=O)Nc2ccc(N(Cc3ccc(C)cc3)[C@@H](C)CC(=O)O)c3ccccc23)cc1 [DDO-1162, 3-((4-((4-methoxyphenyl)sulfonamido)naphthalen-1-yl) (4-methylbenzyl)amino) butanoic acid]	5.72	
COc1ccc(S(=O)(=O)N(CC(=O)O)c2ccc(N(Cc3ccc(C)cc3)[C@@H](C)CC(=O)O)c3ccccc23)cc1 [DDO-1163]	6.82	
COc1ccc(S(=O)(=O)Nc2ccc(N(Cc3ccc(Cl)cc3)[C@@H](C)CC(=O)O)c3ccccc23)cc1 [DDO-1164, (S)-3-((4-chlorobenzyl) (4-((4-methoxyphenyl)sulfonamido)naphthalen-1-yl)amino) butanoic acid]	5.39	
COc1ccc(S(=O)(=O)N(CC(=O)O)c2ccc(N(Cc3ccc(Cl)cc3)[C@@H](C)CC(=O)O)c3ccccc23)cc1 [DDO-1165, (S)-3-((4-((N-(carboxymethyl)-4-methoxyphenyl)sulfonamido)naphthalen-1-yl) (4-chlorobenzyl)amino) butanoic acid]	6.57	
COc1ccc(S(=O)(=O)Nc2ccc(N(Cc3ccc(F)cc3)[C@@H](C)CC(=O)O)c3ccccc23)cc1 [DDO-1166, (S)-3-((4-fluorobenzyl) (4-((4-methoxyphenyl)sulfonamido)naphthalen-1-yl)amino) butanoic acid]	5.67	
COc1ccc(S(=O)(=O)N(CC(=O)O)c2ccc(N(Cc3ccc(F)cc3)[C@@H](C)CC(=O)O)c3ccccc23)cc1 [DDO-1167, (S)-3-((4-((N-(carboxymethyl)-4-methoxyphenyl)sulfonamido)naphthalen-1-yl) (4-fluorobenzyl)amino) butanoic acid]	6.75	
COc1ccc(S(=O)(=O)Nc2ccc(N(Cc3cccc(C)c3)[C@@H](C)CC(=O)O)c3ccccc23)cc1 [DDO-1168, (S)-3-((4-((4-methoxyphenyl)sulfonamido)naphthalen-1-yl) (3-methylbenzyl)amino) butanoic acid]	5.78	
COc1ccc(S(=O)(=O)N(CC(=O)O)c2ccc(N(Cc3cccc(C)c3)[C@@H](C)CC(=O)O)c3ccccc23)cc1 [DDO-1169]	6.69	
COc1ccc(S(=O)(=O)Nc2ccc(N(Cc3ccccc3C)[C@@H](C)CC(=O)O)c3ccccc23)cc1 [DDO-1170, (S)-3-((4-((4-methoxyphenyl)sulfonamido)naphthalen-1-yl) (2-methylbenzyl)amino) butanoic acid]	5.96	
COc1ccc(S(=O)(=O)N(CC(=O)O)c2ccc(N(Cc3ccccc3C)[C@@H](C)CC(=O)O)c3ccccc23)cc1 [DDO-1171]	6.95	
COc1ccc(S(=O)(=O)Nc2ccc(N(Cc3cccc(Cl)c3)[C@@H](C)CC(=O)O)c3ccccc23)cc1 [DDO-1172, (S)-3-((3-chlorobenzyl) (4-((4-methoxyphenyl)sulfonamido)naphthalen-1-yl)amino) butanoic acid]	5.42	
COc1ccc(S(=O)(=O)N(CC(=O)O)c2ccc(N(Cc3cccc(Cl)c3)[C@@H](C)CC(=O)O)c3ccccc23)cc1 [DDO-1173, (S)-3-((4-((N-(Carboxymethyl)-4-methoxyphenyl)sulfonamido)naphthalen-1-yl) (3-chlorobenzyl)amino) butanoic acid]	6.74	
COc1ccc(S(=O)(=O)Nc2ccc(N(Cc3ccccc3Cl)[C@@H](C)CC(=O)O)c3ccccc23)cc1 [DDO-1174, (S)-3-((2-chlorobenzyl) (4-((4-methoxyphenyl)sulfonamido)naphthalen-1-yl)amino) butanoic acid]	5.80	
C#CCN(c1ccc(NS(=O)(=O)c2ccc(OC)cc2)c2ccccc12)[C@@H](C)CC(=O)O [DDO-1180]		pIC50 [2]: 7.02
C#CCN(c1ccc(N(CC(=O)O)S(=O)(=O)c2ccc(OC)cc2)c2ccccc12)[C@@H](C)CC(=O)O [DDO-1181]		pIC50 (general formula IV compounds): 7.17
C#CCN(c1ccc(NS(=O)(=O)c2ccccc2)c2ccccc12)[C@@H](C)CC(=O)O [DDO-1186, (S)-3-((4-(phenylsulfonamido)naphthalen-1-yl)(prop-2-yn-1-yl)amino) butanoic acid]		pIC50 [2]: 5.10
C#CCN(c1ccc(N(CC(=O)O)S(=O)(=O)c2ccccc2)c2ccccc12)[C@@H](C)CC(=O)O [DDO-1187, (S)-3-((4-(N-(carboxymethyl)benzenesulfonamido)naphthalen-1-yl) (prop-2-yn-1-yl)amino) butanoic acid]		pIC50 (general formula IV compounds): 5.52
C#CCN(c1ccc(NS(=O)(=O)c2ccc(NC(C)=O)cc2)c2ccccc12)[C@@H](C)CC(=O)O [DDO-1188, (S)-3-((4-((4-acetamidophenyl)sulfonamido)naphthalen-1-yl) (prop-2-yn-1-yl)amino) butanoic acid]		pIC50 [2]: 5.84
C#CCN(c1ccc(N(CC(=O)O)S(=O)(=O)c2ccc(NC(C)=O)cc2)c2ccccc12)[C@@H](C)CC(=O)O [DDO-1189, (S)-3-((4-((4-acetamido-N-(carboxymethyl)phenyl)sulfonamido)naphthalen-1-yl)(prop-2-yn-1-yl)amino) butanoic acid]		pIC50 (general formula IV compounds): 6.20
C#CCN(c1ccc(NS(=O)(=O)c2ccc(F)cc2)c2ccccc12)[C@@H](C)CC(=O)O [DDO-1190, (S)-3-((4-((4-fluorophenyl)sulfonamido)naphthalen-1-yl)(prop-2-yn-1-yl)amino) butanoic acid]		pIC50 [2]: 5.40
C#CCN(c1ccc(N(CC(=O)O)S(=O)(=O)c2ccc(F)cc2)c2ccccc12)[C@@H](C)CC(=O)O [DDO-1191, (S)-3-((4-((N-(carboxymethyl)-4-fluorophenyl)sulfonamido)naphthalen-1-yl) (prop-2-yn-1-yl)amino) butanoic acid]		pIC50 (general formula IV compounds): 5.70
C#CCN(c1ccc(NS(=O)(=O)c2ccc(Cl)cc2)c2ccccc12)[C@@H](C)CC(=O)O [DDO-1192, (S)-3-((4-((4-chlorophenyl)sulfonamido)naphthalen-1-yl)(prop-2-yn-1-yl)amino) butanoic acid]		pIC50 [2]: 5.77
C#CCN(c1ccc(N(CC(=O)O)S(=O)(=O)c2ccc(Cl)cc2)c2ccccc12)[C@@H](C)CC(=O)O [DDO-1193, (S)-3-((4-((N-(Carboxymethyl)-4-chlorophenyl)sulfonamido)naphthalen-1-yl)(prop-2-yn-1-yl)amino) butanoic acid]		pIC50 (general formula IV compounds): 6.02
C#CCN(c1ccc(NS(=O)(=O)c2ccc(C)cc2)c2ccccc12)[C@@H](C)CC(=O)O [DDO-1194, (S)-3-((4-((4-methylphenyl)sulfonamido)naphthalen-1-yl)(prop-2-yn-1-yl)amino) butanoic acid]		pIC50 [2]: 6.32
C#CCN(c1ccc(N(CC(=O)O)S(=O)(=O)c2ccc(C)cc2)c2ccccc12)[C@@H](C)CC(=O)O [DDO-1195, (S)-3-((4-((N-(Carboxymethyl)-4-methylphenyl)sulfonamide)naphthalen-1-yl)(prop-2-yn-1-yl)amino) butanoic acid]		pIC50 (general formula IV compounds): 6.96
C#CCN(c1ccc(NS(=O)(=O)c2ccc(C(C)C)cc2)c2ccccc12)[C@@H](C)CC(=O)O [DDO-1196, (S)-3-((4-((4-isopropylphenyl)sulfonamido)naphthalen-1-yl)(prop-2-yn-1-yl)amino) butanoic acid]		pIC50 [2]: 6.66

The next lines start with results.

pIC50 [1]	Compound	further results
6.96	COc1ccc(S(=O)(=O)N(CC(=O)O)c2ccc(N(Cc3ccccc3Cl)[C@@H](C)CC(=O)O)c3ccccc23)cc1 [DDO-1175, (S)-3-((4-((N-(Carboxymethyl)-4-methoxyphenyl)sulfonamido)naphthalen-1-yl) (2-chlorobenzyl)amino) butanoic acid]	
5.61	COc1ccc(S(=O)(=O)Nc2ccc(N(Cc3cccc(F)c3)[C@@H](C)CC(=O)O)c3ccccc23)cc1 [DDO-1176, (S)-3-((3-fluorobenzyl) (4-((4-methoxyphenyl)sulfonamido)naphthalen-1-yl)amino) butanoic acid]	
6.74	COc1ccc(S(=O)(=O)N(CC(=O)O)c2ccc(N(Cc3cccc(F)c3)[C@@H](C)CC(=O)O)c3ccccc23)cc1 [DDO-1177, (S)-3-((4-((N-(carboxymethyl)-4-methoxyphenyl)sulfonamido)naphthalen-1-yl) (3-fluorobenzyl)amino) butanoic acid]	
6.34	COc1ccc(S(=O)(=O)Nc2ccc(N(Cc3ccccc3F)[C@@H](C)CC(=O)O)c3ccccc23)cc1 [DDO-1178, (S)-3-((2-fluorobenzyl) (4-((4-methoxyphenyl)sulfonamido)naphthalen-1-yl)amino) butanoic acid]	
7.12	COc1ccc(S(=O)(=O)N(CC(=O)O)c2ccc(N(Cc3ccccc3F)[C@@H](C)CC(=O)O)c3ccccc23)cc1 [DDO-1179]	
